Counter-ions that a name gives are not always drawn.
Tested on: E. coli MG1655
Assay: High-throughput screening of FDA-approved drug library for antibiotic adjuvants (growth inhibition, OD600)
Type: cell-based, Escherichia coli
Conditions: library drug alone, LB medium, 96-well, 8 h static culture at 37°C, relative to PMBN (positive) and DMSO (negative) controls, %, table head prints no unit
Description: To screen for antibiotic adjuvants against GNB, […] library drugs or polymyxin B nonapeptide (PMBN, positive control) or dimethyl sulfoxide (DMSO, negative control). After 8 h of static culture at 37°C, the optical density at 600 nm (OD600) was measured using a microplate reader. Percentage inhibition was calculated as (ODN – ODX)/(ODN – ODP) × 100%, where ODX is the OD600 value for a test treated with drug X, and ODP and ODN are the OD600 values for the positive and negative control, respectively.

SMILES	Growth inhibition, Compound [%]
CN[C@@H]1[C@H](O)[C@H](NC)[C@H]2O[C@@]3(O)C(=O)C[C@@H](C)O[C@H]3O[C@@H]2[C@H]1O.Cl.Cl [Spectinomycin dihydrochloride]	92
Oc1c(Cl)cc(Cl)cc1Sc1cc(Cl)cc(Cl)c1O [Bithionol]	86
NC[C@H]1O[C@H](O[C@H]2[C@H](O)[C@@H](O[C@H]3O[C@H](CO)[C@@H](O)[C@H](N)[C@H]3O)[C@H](N)C[C@@H]2N)[C@H](N)[C@@H](O)[C@@H]1O [Bekanamycin]	106
CC1(C)S[C@@H]2[C@H](NC(=O)[C@H](NC(=O)N3CCN(S(C)(=O)=O)C3=O)c3ccccc3)C(=O)N2[C@H]1C(=O)O [Mezlocillin Sodium]	89
CCCN1C[C@H](C)[C@@H](O)[C@](C)(O)[C@@H](CC)OC(=O)[C@H](C)[C@@H](O[C@H]2C[C@@](C)(OC)[C@@H](O)[C@H](C)O2)[C@H](C)[C@@H](O[C@@H]2O[C@H](C)C[C@H](N(C)C)[C@H]2O)[C@](C)(O)C[C@H]1C [Gamithromycin]	96
C=C[C@]1(C)C[C@@H](OC(=O)CS[C@@H]2CC[C@@H](N)C[C@H]2O)C2(C)[C@H](C)CCC3(CCC(=O)[C@H]32)[C@@H](C)[C@@H]1O.CC(=O)O (some centres unmarked) [Lefamulin acetate]	98
CC(=O)Nc1ncc([N+](=O)[O-])s1 [Nithiamide]	87
CN[C@@H]1[C@H](O[C@H]2[C@H](O[C@H]3[C@H](O)[C@@H](O)[C@H](NC(=N)N)[C@@H](O)[C@@H]3NC(=N)N)O[C@@H](C)[C@]2(O)CO)O[C@@H](CO)[C@H](O)[C@H]1O [Dihydrostreptomycin sulfate]	106
COc1c(N2CCNC(C)C2)c(F)cc2c(=O)c(C(=O)O)cn(C3CC3)c12 (centres unmarked) [Gatifloxacin]	100
CO[C@@]1(NC(=O)C2SC(=C(C(N)=O)C(=O)O)S2)C(=O)N2C(C(=O)O)=C(CSc3nnnn3C)CS[C@@H]21 (some centres unmarked) [Cefotetan]	97
CO/N=C(/C(=O)N[C@@H]1C(=O)N2C(C(=O)O)=C(CSC(=O)c3ccco3)CS[C@H]12)c1csc(N)n1.Cl [Ceftiofur hydrochloride]	84
O=C(Nc1cc(Cl)cc(Cl)c1O)c1c(O)c(Cl)cc(Cl)c1Cl [Oxyclozanide]	52
CO/N=C(\C(=O)N[C@@H]1C(=O)N2C(C(=O)OCOC(=O)C(C)(C)C)=C(/C=C\c3scnc3C)CS[C@H]12)c1csc(N)n1 [Cefditoren pivoxil]	73
CC1(C)S[C@@H]2[C@H](NC(=O)Cc3ccccc3)C(=O)N2[C@H]1C(=O)O [Penicillin G sodium salt]	38
CCn1cc(C(=O)O)c(=O)c2cc(F)c(N3CCNCC3)cc21 [Norfloxacin]	99
CC1NCc2cc(-c3ccc4c(=O)c(C(=O)O)cn(C5CC5)c4c3OC(F)F)ccc21.CS(=O)(=O)O.O (centres unmarked) [Garenoxacin mesylate hydrate]	106
Oc1ccc(Cl)c2cccnc12 [Dermofongin]	85
Nc1nc(F)nc2c1ncn2[C@@H]1O[C@H](COP(=O)(O)O)[C@@H](O)[C@@H]1O [Fludarabine Phosphate]	43
Cl.NC1CCN(c2nc3c(cc2F)c(=O)c(C(=O)O)cn3-c2ccc(F)cc2F)C1 (centres unmarked) [Tosufloxacin hydrochloride]	103
CC(OC(=O)OC1CCCCC1)OC(=O)C1=C(CSc2nnnn2CCN(C)C)CS[C@@H]2[C@H](NC(=O)Cc3csc(N)n3)C(=O)N12.Cl.Cl (some centres unmarked) [Cefotiam Hexetil Hydrochloride]	87
CC1CCc2cc(F)cc3c(=O)c(C(=O)O)cn1c23 (centres unmarked) [Flumequine]	108
CCCCCCCCCCCCCCCC[N+](C)(C)C [Cetrimonium bromide]	87
O.c1cnc2c(c1)ccc1cccnc12 [1, 10-Phenanthroline monohydrate]	62

Reference: paper PMC11358092, “Caspofungin enhances the potency of rifampin against Gram-negative bacteria” (Frontiers in Microbiology, 2024)
